# Measured values taken from ChEMBL document CHEMBL6074627 (RSC Med Chem, 2024).
# Activity calls are given as the source filed them. No cut-off for these calls is given here.
# Assays:
# [1] = target: Replicase polyprotein 1ab (Severe acute respiratory syndrome coronavirus 2, UniProt P0DTD1); assay: Inhibition of N-terminal 8His and SUMO tagged SARS-CoV-2 nsp14 N7-methyltransferase activity extracted from Escherichia coli using S-Adenosyl-L-methionine as substrate incubated for 30 mins by mass spectrometry
# [2] = target: mRNA cap guanine-N(7) methyltransferase (Homo sapiens) (UniProt O43148); assay: Inhibition of human RNMT at 25 uM
# Sequence of mRNA cap guanine-N(7) methyltransferase (Homo sapiens) (O43148 whole entry): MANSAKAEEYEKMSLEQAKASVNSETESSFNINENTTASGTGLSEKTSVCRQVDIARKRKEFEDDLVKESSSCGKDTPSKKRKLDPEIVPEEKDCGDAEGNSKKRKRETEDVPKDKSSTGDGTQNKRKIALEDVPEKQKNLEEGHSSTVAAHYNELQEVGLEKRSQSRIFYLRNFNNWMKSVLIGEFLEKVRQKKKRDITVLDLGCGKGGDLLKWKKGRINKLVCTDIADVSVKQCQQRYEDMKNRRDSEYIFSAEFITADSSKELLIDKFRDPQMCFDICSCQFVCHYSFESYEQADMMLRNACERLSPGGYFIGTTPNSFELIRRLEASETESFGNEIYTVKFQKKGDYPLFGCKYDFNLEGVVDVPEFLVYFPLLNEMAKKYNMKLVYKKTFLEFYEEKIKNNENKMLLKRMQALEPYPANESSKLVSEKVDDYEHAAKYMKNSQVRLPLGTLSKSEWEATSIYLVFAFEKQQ
# SARS-CoV-2 = assay: Antiviral activity against SARS-CoV-2 hCoV-19/Czech Republic/NRL_6632_2/2020 infected in African green monkey Vero E6 cells assessed as reduction in viral growth […] by two-fold serial dilution assay; assay type: functional, organism-based; settings: Severe acute respiratory syndrome coronavirus 2
SMILES,IC50 [1],inhibition [2],Activity (SARS-CoV-2)
COC(=O)c1ccc(C(=O)NC[C@H]2O[C@@H](n3cnc4c(N)ncnc43)[C@H](O)[C@@H]2O)cc1,Not_active,–,–
Cc1cc(=O)oc2cc(NC(=O)[C@H]3O[C@@H](n4cnc5c(N)ncnc54)[C@H](O)[C@@H]3O)ccc12,–,inactive,inactive
Cc1noc(C)c1-c1ccc(NC(=O)[C@H]2O[C@@H](n3cnc4c(N)ncnc43)[C@H](O)[C@@H]2O)cc1,Not_active,–,–
Cc1cc(=O)[nH]c2cc(NC(=O)[C@H]3O[C@@H](n4cc(C#Cc5cncnc5)c5c(N)ncnc54)[C@H](O)[C@@H]3O)ccc12,–,inactive,inactive
Nc1ncnc2c1ncn2[C@@H]1O[C@H](C(=O)Nc2ccc(-c3ccsc3)cc2)[C@@H](O)[C@H]1O,Not_active,–,–
COC(=O)c1cc(NC(=O)[C@H]2O[C@@H](n3cnc4c(N)ncnc43)[C@H](O)[C@@H]2O)ccc1F,Not_active,–,–
Cc1cc(=O)[nH]c2cc(N(C)C(=O)[C@H]3O[C@@H](n4cc(C#Cc5cncnc5)c5c(N)ncnc54)[C@H](O)[C@@H]3O)ccc12,–,inactive,inactive
Nc1ncnc2c1ncn2[C@@H]1O[C@H](CNC(=O)c2ccc3c(c2)OCCO3)[C@@H](O)[C@H]1O,Not_active,–,–
Cc1cc(=O)[nH]c2cc(NC(=O)[C@H]3O[C@@H](n4cnc5c(N)ncnc54)[C@H](O)[C@@H]3O)ccc12,–,inactive,inactive
Nc1ncnc2c1ncn2[C@@H]1O[C@H](C(=O)Nc2ccc(-c3ccoc3)cc2)[C@@H](O)[C@H]1O,Not_active,–,–
Cc1ccc(NC(=O)[C@H]2O[C@@H](n3cnc4c(N)ncnc43)[C@H](O)[C@@H]2O)cc1O,Not_active,–,–
NC(=O)c1ccc(NC(=O)[C@H]2O[C@@H](n3cnc4c(N)ncnc43)[C@H](O)[C@@H]2O)cc1,Not_active,–,–
Cc1cc(=O)oc2cc(NC(=O)[C@H]3O[C@@H](n4cc(C#Cc5cncnc5)c5c(N)ncnc54)[C@H](O)[C@@H]3O)ccc12,–,inactive,inactive
Nc1ncnc2c1ncn2[C@@H]1O[C@H](C(=O)Nc2ccc(-c3cn[nH]c3)cc2)[C@@H](O)[C@H]1O,Not_active,–,–
COc1cccc(NC(=O)[C@H]2O[C@@H](n3cnc4c(N)ncnc43)[C@H](O)[C@@H]2O)c1,Not_active,–,–
